The text below walks through data of patent US12471596B2 (priority 2019, dated 2025).

For this experiment, the system named is Phytophthora infestans. Put plainly: microbe, parasite or virus in culture. The class given is cell-based. As to conditions: in Secale cereale, 168 h, read-out: control compared to the untreated check.

Consider `COc1nc(OC)nc(OCC(=O)N2CCC(c3nc(C4=NOC(c5c(F)cccc5Cl)C4)cs3)CC2)n1` (stereo not shown) [Compound 98, 1-(4-(4-(5-(2-chloro-6-fluorophenyl)-4,5-dihydroisoxazol-3-yl)thiazol-2-yl)piperidin-1-yl)-2-((4,6-dimethoxy-1,3,5-triazin-2-yl)oxy)ethan-1-one], for which the inhibition of growth at 30 ppm is at least 70%. With `O=C(COc1ccc(C(F)(F)F)nn1)N1CCC(c2nc(C3=NOC(c4c(Cl)cccc4C(F)(F)F)C3)cs2)CC1` (stereo not shown) [Compound 66, 1-(4-(4-(5-(2-chloro-6-(trifluoromethyl)phenyl)-4,5-dihydroisoxazol-3-yl)thiazol-2-yl)piperidin-1-yl)-2-((6-(trifluoromethyl)pyridazin-3-yl)oxy)ethan-1-one] the figure was at least 70%. In the case of `O=C(CSc1ccc(C(F)(F)F)nn1)N1CCC(c2nc(C3=NOC(c4c(F)cccc4Br)C3)cs2)CC1` (stereo not shown) [Compound 151, 1-(4-(4-(5-(2-bromo-6-fluorophenyl)-4,5-dihydroisoxazol-3-yl)thiazol-2-yl)piperidin-1-yl)-2-((6-(trifluoromethyl)pyridazin-3-yl)thio)ethan-1-one] it was at least 70%; in that of `N#Cc1nccc(OCC(=O)N2CCC(c3nc(C4=NOC(c5c(O)cccc5Cl)C4)cs3)CC2)n1` (stereo not shown) [Compound 95, 4-(2-(4-(4-(5-(2-chloro-6-hydroxyphenyl)-4,5-dihydroisoxazol-3-yl)thiazol-2-yl)piperidin-1-yl)-2-oxoethoxy)pyrimidine-2-carbonitrile], at least 70%; in that of `O=C(CSc1ccc(C(F)(F)F)nn1)N1CCC(c2nc(C3=NOC(c4c(F)cccc4F)C3)cs2)CC1` (stereo not shown) [Compound 150, 1-(4-(4-(5-(2,6-difluorophenyl)-4,5-dihydroisoxazol-3-yl)thiazol-2-yl)piperidin-1-yl)-2-((6-(trifluoromethyl)pyridazin-3-yl)thio)ethan-1-one], at least 70%. In the case of `O=C(COc1ccnc(C(F)(F)F)n1)N1CCC(c2nc(C3=NOC(c4c(F)cccc4Cl)C3)cs2)CC1` (stereo not shown) [Compound 20, 1-(4-(4-(5-(2-chloro-6-fluorophenyl)-4,5-dihydroisoxazol-3-yl)thiazol-2-yl)piperidin-1-yl)-2-((2-(trifluoromethyl)pyrimidin-4-yl)oxy)ethan-1-one] it was at least 70%. Take `COc1ncc(OCC(=O)N2CCC(c3nc(C4=NOC(c5c(Cl)cccc5C(F)(F)F)C4)cs3)CC2)cn1` (stereo not shown) [Compound 137, 1-(4-(4-(5-(2-chloro-6-(trifluoromethyl)phenyl)-4,5-dihydroisoxazol-3-yl)thiazol-2-yl)piperidin-1-yl)-2-((2-methoxypyrimidin-5-yl)oxy)ethan-1-one]: the inhibition of growth at 30 ppm was at least 70%.

As to `COc1cncnc1OCC(=O)N1CCC(c2nc(C3=NOC(c4c(F)cccc4Br)C3)cs2)CC1` (stereo not shown) [Compound 78, 1-(4-(4-(5-(2-bromo-6-fluorophenyl)-4,5-dihydroisoxazol-3-yl)thiazol-2-yl)piperidin-1-yl)-2-((5-methoxypyrimidin-4-yl)oxy)ethan-1-one], the inhibition of growth at 30 ppm is at least 70%. In the case of `CSc1nccnc1OCC(=O)N1CCC(c2nc(C3=NOC(c4c(F)cccc4Cl)C3)cs2)CC1` (stereo not shown) [Compound 142, 1-(4-(4-(5-(2-chloro-6-fluorophenyl)-4,5-dihydroisoxazol-3-yl)thiazol-2-yl)piperidin-1-yl)-2-((3-(methylthio)pyrazin-2-yl)oxy)ethan-1-one] it was at least 70%. With `CS(=O)(=O)c1nccnc1OCC(=O)N1CCC(c2nc(C3=NOC(c4c(F)cccc4F)C3)cs2)CC1` (stereo not shown) [Compound 157, 1-(4-(4-(5-(2,6-difluorophenyl)-4,5-dihydroisoxazol-3-yl)thiazol-2-yl)piperidin-1-yl)-2-((3-(methylsulfonyl)pyrazin-2-yl)oxy)ethan-1-one] the figure was at least 70%; with `COc1cncc(OCC(=O)N2CCC(c3nc(C4=NOC(c5c(F)cccc5F)C4)cs3)CC2)n1` (stereo not shown) [Compound 119, 1-(4-(4-(5-(2,6-difluorophenyl)-4,5-dihydroisoxazol-3-yl)thiazol-2-yl)piperidin-1-yl)-2-((6-methoxypyrazin-2-yl)oxy)ethan-1-one], at least 70%; with `N#Cc1cccc(Cl)c1C1CC(c2csc(C3CCN(C(=O)COc4cnc(C(F)(F)F)cn4)CC3)n2)=NO1` (stereo not shown) [Compound 93, 3-chloro-2-(3-(2-(1-(2-((5-(trifluoromethyl)pyrazin-2-yl)oxy)acetyl)piperidin-4-yl)thiazol-4-yl)-4,5-dihydroisoxazol-5-yl)benzonitrile], at least 70%. With `COc1ccnc(OCC(=O)N2CCC(c3nc(C4=NOC(c5c(F)cccc5Br)C4)cs3)CC2)n1` (stereo not shown) [Compound 44, 1-(4-(4-(5-(2-bromo-6-fluorophenyl)-4,5-dihydroisoxazol-3-yl)thiazol-2-yl)piperidin-1-yl)-2-((4-methoxypyrimidin-2-yl)oxy)ethan-1-one] the figure was at least 70%; with `CSc1nccnc1OCC(=O)N1CCC(c2nc(C3=NOC(c4c(Cl)cccc4Cl)C3)cs2)CC1` (stereo not shown) [Compound 148, 1-(4-(4-(5-(2,6-dichlorophenyl)-4,5-dihydroisoxazol-3-yl)thiazol-2-yl)piperidin-1-yl)-2-((3-(methylthio)pyrazin-2-yl)oxy)ethan-1-one], at least 70%. As to `COc1nccnc1OCC(=O)N1CCC(c2nc(C3=NOC(c4c(Cl)cccc4C(F)(F)F)C3)cs2)CC1` (stereo not shown) [Compound 65, 1-(4-(4-(5-(2-chloro-6-(trifluoromethyl)phenyl)-4,5-dihydroisoxazol-3-yl)thiazol-2-yl)piperidin-1-yl)-2-((3-methoxypyrazin-2-yl)oxy)ethan-1-one], the inhibition of growth at 30 ppm was at least 70%. Turning to `COc1cncc(OCC(=O)N2CCC(c3nc(C4=NOC(c5c(Cl)cccc5Cl)C4)cs3)CC2)n1` (stereo not shown) [Compound 99, 1-(4-(4-(5-(2,6-dichlorophenyl)-4,5-dihydroisoxazol-3-yl)thiazol-2-yl)piperidin-1-yl)-2-((6-methoxypyrazin-2-yl)oxy)ethan-1-one], the inhibition of growth at 30 ppm is at least 70%. With `CSc1nccnc1OCC(=O)N1CCC(c2nc(C3=NOC(c4c(F)cccc4F)C3)cs2)CC1` (stereo not shown) [Compound 140, 1-(4-(4-(5-(2,6-difluorophenyl)-4,5-dihydroisoxazol-3-yl)thiazol-2-yl)piperidin-1-yl)-2-((3-(methylthio)pyrazin-2-yl)oxy)ethan-1-one], the inhibition of growth at 30 ppm was at least 70%. In the case of `O=C(COc1cncc(C(F)(F)F)n1)N1CCC(c2nc(C3=NOC(c4c(Cl)cccc4C(F)(F)F)C3)cs2)CC1` (stereo not shown) [Compound 68, 1-(4-(4-(5-(2-chloro-6-(trifluoromethyl)phenyl)-4,5-dihydroisoxazol-3-yl)thiazol-2-yl)piperidin-1-yl)-2-((6-(trifluoromethyl)pyrazin-2-yl)oxy)ethan-1-one] it was at least 70%; in that of `COc1ncc(OCC(=O)N2CCC(c3nc(C4=NOC(c5c(F)cccc5Cl)C4)cs3)CC2)cn1` (stereo not shown) [Compound 132, 1-(4-(4-(5-(2-chloro-6-fluorophenyl)-4,5-dihydroisoxazol-3-yl)thiazol-2-yl)piperidin-1-yl)-2-((2-methoxypyrimidin-5-yl)oxy)ethan-1-one], at least 70%.
